Reference: US11365202B2, “Antimalarial compounds, process for preparation and their use for drug resistant malaria” (Council of Scientific and Industrial Research, priority 2018, dated 2022)

What was measured:
[1] = target: falcipain-2 (Plasmodium falciparum (isolate 3D7), UniProt Q8I6U4); assay: Fluorometric assay for falcipain-2 activity; assay type: biochemical
Description: Recombinant falcipain-2 was prepared according to the method described by Shenai et al. (J Biol Chem.; 2000, 275(37): 29000-10) and Kumar et al. (Biochem Biophys. Res Commun. 2004, 317(1), 38-45) with slight modification. Briefly, Escherichia coli M15 containing pQE30-FP-2 plasmid were grown to mid-log phase and induced with isopropyl-1-thio-b-D-galactopyranoside (IPTG, 0.5 mM) for 5 h at 37° C. Cells were harvested, washed with ice-cold 100 mM Tris-Cl, 10 mM EDTA, pH 7.4, sonicated (12 cycles of 10 s each, with cooling for 10 s between the cycles), and centrifuged at 15,000 rpm for 45 min at 4° C. The pellet was washed twice with 2.5 M urea, 20 mM Tris-Cl2.5% Triton X-100, pH 8.0; centrifuged at 15,000 rpm for 45 min at 4° C.; and solubilized in 6 M guanidine HCl, 20 mM Tris-Cl, 250 mM NaCl, 20 mM imidazole, pH 8.0 (5 ml/g of inclusion body pellet) at RT for 60 min with gentle stirring. Insoluble material was separated by centrifuging at 15,000 rpm for 60 min at 4° C. For the purification of the recombinant protein, the supernatant was incubated overnight at 4° C. with a nickel-nitrilotriacetic acid (Ni-NTA) resin. The resin was loaded on a column and washed with 10 bed volumes each of 6 M guanidine HCl, 20 mM Tris-Cl, 250 mM NaCl, pH 8.0; 8 M urea, 20 mM Tris-Cl, 500 mM NaCl, pH 8.0; and 8 M urea, 20 mM Tris-Cl, 30 mM imidazole, pH 8.0. Bound protein was eluted with 8 M urea, 20 mM Tris-Cl, 1 M imidazole, pH 8.0 and quantified by the Biocinchoninic acid assay. For the refolding, the fractions containing falcipain-2 protein were pooled in ice-cold refolding buffer: 100 mM diluted in Tris-Cl, 1 mM EDTA, 20% glycerol, 250 mM L-arginine, 1 mM GSH, 1 mM GSSG, pH 8.0 was added in a 100 fold dilution. The mixture was incubated with moderate stirring at 4° C. for 24 h, and concentrated to 25 ml using a stirred cell with a 10-kDa cut-off membrane (Pellicon XL device, Millipore) at 4° C. […] The purified and concentrated protein was quantified using Biocinchoninic acid assay. • b) Fluorometric Assay for Falcipain-2 activity:
For screening of falcipain-2 inhibitors, a 96-well plate fluorometric assay was developed following a protocol described by Kumar et al. (Biochem Biophys Res Commun.; 2004, 317(1), 38-45) Briefly, reaction was set up in a 200 ml reaction mixture containing 100 mM NaOAc, 10 mM DTT, 6 mg enzyme and different concentrations of inhibitors, pH 5.5. 10 mM of fluorogenic substrate benzyloxycarbonyl-Phe-Arg-7-amino-4-methylcoumarin hydrochloride (ZFR-AMC) was added, and the release of 7-amino-4-methylcoumarin (AMC) was monitored (excitation 355 nm; emission 460 nm) over 30 min at RT in Perkin Elmer Victor3 multi-label counter. […] The IC50 values were calculated from curve fittings by software Workout V 2.5.

[2] = system: P. falciparum 3D7; assay: P. falciparum growth inhibition assay, 3D7 strain; assay type: cell-based; conditions: Plasmodium falciparum, 3D7, 48 h, read-out: EC50 on P. falciparum 3D7
Description: P. falciparum strain 3D7, Dd2 and 7G8 were cultured in RPMI media (Invitrogen) supplemented with 0.5% albumax and 4% haematocrit using a protocol described previously [Trager and Jensen (Science,1976; 193:673-675)]. Cultures were synchronized by repeated sorbitol treatment following Lambros and Vanderberg (J Parasitol; 1979; 65:418-420). Each growth inhibition assay was performed in triplicate and the experiment was repeated twice. Each well contained 0.5 ml of complete media [RPMI (invitrogen) with 0.5% albumax], 4% haematocrit and the parasitaemia adjusted to ˜1%; the compound added to the parasite cultures to desired final concentrations (0-100 µM) and same amount of solvent (DMSO) was added to the control wells. The cultures were allowed to grow further for 48 h. Parasite growth was assessed by DNA fluorescent dye-binding assay using SYBR green (Sigma) following Smilkstein et al (Antimicrob Agents Chemother.; 2004, 48, 1803-1806). • f) In Vitro Toxicity Assay on CHO Cells

[3] = system: P. berghei; assay: In vivo parasiticidal assay with P. berghei mice malaria model
Description: Five groups of female BALB/c mice, 6-8 weeks of age (four mice/group) were used for testing the in vivo parsiticidal and protective efficacy of different drug treatments. Mice were injected IP with 1×10^6 P. berghei infected erythrocytes. The drug treatment was initiated 5 days after inducing parasitemia; mice in a group were given 4 doses of a compound at 12.5 mg/Kg of body weight. Control mice were given solvent alone. The parasitemia was assessed everyday in thin smears of Giemsa stained RBCs from tail blood of each mouse, by counting parasitized erythrocytes in more than 10,000 erythrocytes. Time of death of the mice in each group was also monitored.

[4] = system: A549 human cells; assay: In vitro toxicity on mammalian cell culture; assay type: cell-based
[5] = 4 doses of 12.5 mg/Kg of body weight, infected BALB/c mice

Sequence of falcipain-2 (Q8I6U4 244-484 limits assumed): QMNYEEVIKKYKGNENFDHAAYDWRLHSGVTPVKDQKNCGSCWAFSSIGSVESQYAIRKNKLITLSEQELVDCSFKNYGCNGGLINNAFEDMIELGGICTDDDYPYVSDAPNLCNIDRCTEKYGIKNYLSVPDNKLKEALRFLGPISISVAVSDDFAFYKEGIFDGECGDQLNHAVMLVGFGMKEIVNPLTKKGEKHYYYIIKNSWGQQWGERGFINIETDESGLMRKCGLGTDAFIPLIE

Structure (SMILES)	activity against falcipain-2 enzyme (in words) [1]	EC50 [2]	other results
CCOP(=O)(/C=C/C(NC(=O)[C@H](CO[C@H]1O[C@@H]2O[C@@]3(C)CC[C@H]4[C@H](C)CC[C@@H]([C@H]1C)[C@@]24OO3)NC(=O)OCc1ccccc1)c1ccccc1)OCC (mixture of isomers) [Compound 1, Benzyl ((2S)-1-(((E)-3-(diethoxyphosphoryl)-1-phenylallyl)amino)-1-oxo-3-(((3R,5aS,6R, 8aS,9R,10S,12R,12aR)-3,6,9-trimethyldecahydro-12H-3,12-epoxy[1,2]dioxepino[4,3-i]isochromen-10-yl)oxy)propan-2-yl)carbamate]	inactive	–	IC50 [1]: > 100000 nM
CCOP(=O)(/C=C/[C@@H](NC(=O)[C@H](CC(C)C)NC(=O)[C@H](CO[C@H]1O[C@@H]2OC3(C)CC[C@H]4[C@H](C)CC[C@@H]([C@H]1C)[C@@]24OO3)NC(=O)OCc1ccccc1)c1ccccc1)OCC (stereo in doubt) [Compound 3a, Benzyl ((S)-1-(((S)-1-(((R,E)-3-(diethoxyphosphoryl)-1-phenylallyl)amino)-4-methyl-1-oxopentan-2-yl)amino)-1-oxo-3-(((3R,5aS,6R,8aS,9R,10S,12R,12aR)-3,6,9-trimethyldeca hydro-12H-3,12-epoxy[1,2]dioxepino[4,3-i]isochromen-10-yl)oxy)propan-2-yl)carbamate]	–	10.9 nM	–
CCOP(=O)(/C=C/[C@H](NC(=O)[C@H](CC(C)C)NC(=O)[C@H](CO[C@H]1O[C@@H]2OC3(C)CC[C@H]4[C@H](C)CC[C@@H]([C@H]1C)[C@@]24OO3)NC(=O)OCc1ccccc1)c1ccccc1)OCC (stereo in doubt) [Compound 3b, Benzyl ((S)-1-(((S)-1-(((S,E)-3-(diethoxyphosphoryl)-1-phenylallyl)amino)-4-methyl-1-oxopentan-2-yl)amino)-1-oxo-3-(((3R,5aS,6R,8aS,9R,10S,12R,12aR)-3,6,9-trimethyldeca hydro-12H-3,12-epoxy[1,2]dioxepino[4,3-i]isochromen-10-yl)oxy)propan-2-yl)carbamate]	–	16.7 nM	–
CCOP(=O)(/C=C/C(NC(=O)[C@@H]1C[C@@H](O[C@H]2O[C@@H]3OC4(C)CC[C@H]5[C@H](C)CC[C@@H]([C@H]2C)[C@@]35OO4)CN1C(=O)OCc1ccccc1)c1ccccc1)OCC (stereo in doubt) [Compound 4, Benzyl (2S,4R)-2-(((E)-3-(diethoxyphosphoryl)-1-phenylallyl)carbamoyl)-4-(((3R,5aS, 6R,8aS,9R,10S,12R,12aR)-3,6,9-trimethyldecahydro-12H-3,12-epoxy[1,2]dioxepino[4,3-i]isochromen-10-yl)oxy)pyrrolidine-1-carboxylate]	inactive	–	–
CCOP(=O)(/C=C/[C@@H](NC(=O)[C@H](CC(C)C)NC(=O)[C@@H]1C[C@@H](O[C@H]2O[C@@H]3OC4(C)CC[C@H]5[C@H](C)CC[C@@H]([C@H]2C)[C@@]35OO4)CN1C(=O)OCc1ccccc1)c1ccccc1)OCC (stereo in doubt) [Compound 5a, Benzyl (2S,4R)-2-(((S)-1-(((R,E)-3-(diethoxyphosphoryl)-1-phenylallyl)amino)-4-methyl-1-oxopentan-2-yl)carbamoyl)-4-(((3R,5aS,6R,8aS,9R,10S,12R,12aR)-3,6,9-trimethyldeca hydro-12H-3,12-epoxy[1,2]dioxepino[4,3-i]isochromen-10-yl)oxy)pyrrolidine-1-carboxylate]	–	1.04 nM	–
CCOP(=O)(/C=C/[C@H](NC(=O)[C@H](CC(C)C)NC(=O)[C@@H]1C[C@@H](O[C@H]2O[C@@H]3OC4(C)CC[C@H]5[C@H](C)CC[C@@H]([C@H]2C)[C@@]35OO4)CN1C(=O)OCc1ccccc1)c1ccccc1)OCC (stereo in doubt) [Compound 5b, Benzyl (2S,4R)-2-(((S)-1-(((S,E)-3-(diethoxyphosphoryl)-1-phenylallyl)amino)-4-methyl-1-oxopentan-2-yl)carbamoyl)-4-(((3R,5aS,6R,8aS,9R,10S,12R,12aR)-3,6,9-trimethyldeca hydro-12H-3,12-epoxy[1,2]dioxepino[4,3-i]isochromen-10-yl)oxy)pyrrolidine-1-carboxylate]	–	6.12 nM	–
CCOP(=O)(/C=C/C(NC(=O)[C@H](Cc1ccccc1)NC(=O)[C@@H]1C[C@@H](O[C@H]2O[C@@H]3OC4(C)CC[C@H]5[C@H](C)CC[C@@H]([C@H]2C)[C@@]35OO4)CN1C(=O)OCc1ccccc1)c1ccccc1)OCC (stereo in doubt) [Compound 6, Benzyl (2S,4R)-2-(((2S)-1-(((E)-3-(diethoxyphosphoryl)-1-phenylallyl)amino)-1-oxo-3-phenylpropan-2-yl)carbamoyl)-4-(((3R,5aS,6R,8aS,9R,10S,12R,12aR)-3,6,9-trimethyldecahydro-12H-3,12-epoxy[1,2]dioxepino[4,3-i]isochromen-10-yl)oxy)pyrrolidine-1-carboxylate]	inactive	–	–
CCOP(=O)(/C=C/C(NC(=O)[C@H](Cc1ccccc1)NC(=O)[C@H](CO[C@H]1O[C@@H]2O[C@@]3(C)CC[C@H]4[C@H](C)CC[C@@H]([C@H]1C)[C@@]24OO3)NC(=O)OCc1ccccc1)c1ccccc1)OCC (stereo partly drawn) [Compound 2, Benzyl ((2S)-1-(((2S)-1-(((E)-3-(diethoxyphosphoryl)-1-phenylallyl)amino)-1-oxo-3-phenylpropan-2-yl)amino)-1-oxo-3-(((3R,5aS,6R,8aS,9R,10S,12R,12 aR)-3,6,9-trimethyldeca hydro-12H-3,12-epoxy[1,2]dioxepino[4,3-i]isochromen-10-yl)oxy)propan-2-yl)carbamate]	–	–	protection in treated group of mice ([3]; 12.5 mg/kg of body weight): 100%; Complete Protection - Mice with complete parasite clearance [3, 5]: 80% of treated mice; Survival after treatment [3, 5]: >60 days; in vitro toxicity on A549 human cells (in words) [4]: non-toxic
CCOP(=O)(/C=C/[C@@H](NC(=O)[C@H](Cc1ccccc1)NC(=O)[C@H](CO[C@H]1O[C@@H]2O[C@@]3(C)CC[C@H]4[C@H](C)CC[C@@H]([C@H]1C)[C@@]24OO3)NC(=O)OCc1ccccc1)c1ccccc1)OCC [Compound 2a, Benzyl ((S)-1-(((S)-1-(((R,E)-3-(diethoxyphosphoryl)-1-phenylallyl)amino)-1-oxo-3-phenylpropan-2-yl)amino)-1-oxo-3-(((3R,5aS,6R,8aS,9R,10S,12R,12aR)-3,6,9-trimethyldeca hydro-12H-3,12-epoxy[1,2]dioxepino[4,3-i]isochromen-10-yl)oxy)propan-2-yl)carbamate]	–	0.95 nM	–
CCOP(=O)(/C=C/[C@H](NC(=O)[C@H](Cc1ccccc1)NC(=O)[C@H](CO[C@H]1O[C@@H]2O[C@@]3(C)CC[C@H]4[C@H](C)CC[C@@H]([C@H]1C)[C@@]24OO3)NC(=O)OCc1ccccc1)c1ccccc1)OCC [Compound 2b, Benzyl ((S)-1-(((S)-1-(((S,E)-3-(diethoxyphosphoryl)-1-phenylallyl)amino)-1-oxo-3-phenylpropan-2-yl)amino)-1-oxo-3-(((3R,5aS,6R,8aS,9R,10S,12R,12aR)-3,6,9-trimethyldeca hydro-12H-3,12-epoxy[1,2]dioxepino[4,3-i]isochromen-10-yl)oxy)propan-2-yl)carbamate]	–	2.03 nM	–
